PubChem BioAssay AID488890 (Southern Research Specialized Biocontainment Screening …, 2010)
pIC50: −log10 of the molar value. Results filed as inconclusive are left out. Activity calls are given as the source filed them. The rule behind the calls is not given here.

Tested on: Mycobacterium tuberculosis non-replicating, growth inhibition
Assay: growth inhibition of non-replicating M. tuberculosis (AID 488890)

| Compound | pIC50 | IC50 |
| --- | --- | --- |
| CCCn1c(NC(=O)c2ccc([N+](=O)[O-])o2)nc2ccccc21 | 5.12 | – |
| CCOC(=O)COc1cc(O)c2c(=O)cc(-c3ccccc3)oc2c1 | 6.36 | – |
| O=C1CC(N2CCC(C(=O)N3CCCCC3)CC2)C(=O)N1 (stereo not drawn) | – | 12.3 µM (inactive) |
| CC1=NN(C(=O)COc2ccccc2)C(O)(c2ccccc2)C1 (stereo not drawn) | 5.87 | – |
| CCOC(=O)c1ccc(N=C2SC(C(=O)Nc3ccc(C(=O)O)cc3)CC(=O)N2Cc2cccs2)cc1 (stereo not drawn) | – | 35.1 µM (inactive) |
| COc1cc(CNC2CCCC2)cc(Cl)c1OCc1ccc(F)cc1 | – | 17.5 µM (inactive) |
| NC(=O)C1(N2CCCCC2)CCN(C2CC(=O)N(CCc3ccccc3)C2=O)CC1 (stereo not drawn) | – | 13 µM (inactive) |
| O=C(Nc1ccc(-c2nc3ccccc3c(=O)o2)cc1)c1ccco1 | 6.46 | – |
| CCN(CC)C(=O)c1sc2nc(-c3ccccc3)ccc2c1N | – | 14.7 µM (inactive) |
| CCOC(=O)COc1ccc(/C=C2\NC(=S)N(CC)C2=O)cc1 | 5.15 | – |
| Cc1c(C(=O)NNC(=O)c2csc(N3CCOCC3)n2)oc2ccccc12 | 5.12 | – |
| CCOC(=O)c1ccc(-c2ccc(C(=O)Nc3cccnc3)o2)cc1 | 6.08 | – |
| CCC1CCc2sc(C(=O)NNC(=O)c3ccncc3)cc2C1 (stereo not drawn) | 5.71 | – |
| COc1ccc(C2=NC(=O)/C(=C\c3cc(OC)c(OC)c(OC)c3)O2)cc1 | 5.47 | – |
| O=C(NNC(=O)c1ccccn1)c1cccc([N+](=O)[O-])c1 | – | 11 µM (inactive) |
| Cc1ccc2nc(CCc3nc4ccc(C)cc4[nH]3)[nH]c2c1 | – | 17.1 µM (inactive) |
| CCCOc1ccc(-c2nc(C#N)c(NCCCn3ccnc3)o2)cc1 | – | 17 µM (inactive) |
| COc1ccc(C(=O)Nc2nnc(-c3ccccc3)o2)cc1OC | – | 10.4 µM (inactive) |
| CC1CCN(CCc2nc3cc(NC(=O)COc4ccc(Cl)cc4)ccc3n2C)CC1 | – | 17.4 µM (inactive) |
| CC(C)c1ccc(OCC(=O)NNC(=O)c2cnccn2)cc1 | – | 11.9 µM (inactive) |
| Oc1ccc(Br)cc1-c1ccn[nH]1 | 5.77 | – |
| COc1ccc(C(=O)NCC(=O)N/N=C/c2ccc([N+](=O)[O-])o2)cc1OC | 5.30 | – |
| O=C(COC(=O)c1ccccc1Br)Nc1ccccc1F | – | 14.7 µM (inactive) |

| Compound | pIC50 | IC50 |
| --- | --- | --- |
| O=c1cc(-c2ccccc2Cl)oc2c([N+](=O)[O-])c(O)cc(O)c12 | 5.30 | – |
| O=C(Nc1nnc(-c2ccc(Cl)cc2)o1)C1=COCCO1 | – | 14 µM (inactive) |
| CC(C)(C)c1ccc(C(=O)N2CCCC2)s1 | 5.78 | – |
| Cn1c(CNc2ccccc2O)nc2ccccc21 | 5.25 | – |
| Cn1cnc([N+](=O)[O-])c1S(=O)(=O)c1cccc(Cl)c1 | 5.35 | – |
| CSCCC(=O)N1CCCC(CNC(=O)c2ccc(-c3ccccc3)cc2)C1 (stereo not drawn) | – | 17.9 µM (inactive) |
| Cc1nn(-c2nc3ccccc3[nH]2)c(N)c1-c1ccc(Cl)cc1 | 5.31 | – |
| CCCOc1ccc(C(=O)C(CN2CCCC2)c2ccccc2)cc1 (stereo not drawn) | 5.42 | – |
| CC(=O)c1ccc(NC(=O)CCc2ccc(C)o2)cc1 | – | 25.8 µM (inactive) |
| COc1ccc2nc(/N=C(\N)NC(=O)C(C)(C)C)nc(C)c2c1 | – | 17.4 µM (inactive) |
| CCC(C)(C)c1ccc(OCC(=O)Nc2ccncc2)cc1 | 5.36 | – |
| O=C(N/N=C\c1ccc(Cl)s1)C1COc2ccccc2O1 (stereo not drawn) | 6.01 | – |
| CCOC(=O)c1ccsc1NC(=O)CCS(=O)(=O)c1ccccc1 | – | 33.8 µM (inactive) |
| CC1=C/C(=N\OS(=O)(=O)c2ccccc2)C(C)=CC1=O | 6.18 | – |
| Fc1ccc(N2CCN(Cc3nnc(-c4ccccc4)o3)CC2)cc1 | – | 18.9 µM (inactive) |
| Nc1nc2ccccc2n1CCOc1ccc(Br)cc1 | – | 21.5 µM (inactive) |
| Cc1nc([N+](=O)[O-])c(Br)n1CC(=O)c1ccc2ccccc2c1 | 5.12 | – |
| CC(C)Cn1c(=O)c(C(=O)Nc2ccncc2)c(O)c2ccccc21 | 5.54 | – |
| CC[n+]1c(/C=C(\C)Nc2ccccc2)sc2ccccc21 | 5.20 | – |
| COc1cccc(NC(=O)c2cc3ccccc3oc2=O)c1 | – | 15.2 µM (inactive) |
| Cc1cc(Cl)cc(C)c1OCCCCn1ccnc1 | – | 16.9 µM (inactive) |
| Cc1cc(NC(=O)COC(=O)COc2ccc(C(=O)c3ccccc3)cc2)no1 | – | 18.3 µM (inactive) |
| O=C(COc1ccc2c(c1)CCC2)Nc1ccccn1 | – | 11.6 µM (inactive) |

| Compound | pIC50 | IC50 |
| --- | --- | --- |
| O=C(COC(=O)c1ccccn1)Nc1cccc(Cl)c1Cl | 5.21 | – |
| CCOC(=O)CCCNC(=O)COC(=O)c1cc(Br)c(Br)s1 | 5.03 | – |
| O=C(Nc1cccc(Cl)c1N1CCCC1)c1ccc([N+](=O)[O-])o1 | – | 12 µM (inactive) |
| O=C(Nc1nccs1)c1ccc2ccccc2c1 | – | 13.8 µM (inactive) |
| O=[N+]([O-])c1ccc(-c2nc3ccc([N+](=O)[O-])cc3[nH]2)cc1 | – | 16 µM (inactive) |
| COc1ccc(NC(=O)COc2ccc3c(c2)CCC3)cc1 | 5.34 | – |
| CCN(CC)Cc1ccc(NC(=O)c2sc3cc(Cl)ccc3c2Cl)cc1 | – | 11.2 µM (inactive) |
| CCSc1ncc(/C=N/Nc2ccc(Cl)cc2)n1C | 5.18 | – |
| COc1ccc(-c2nnn(CC(=O)OC3CCCCC3)n2)cc1OC | 5.11 | – |
| CCOC(=O)c1cn(Cc2cccc(Cl)c2)nn1 | 5.10 | – |
| O=[N+]([O-])c1ccc2nc(SCc3cn4cc(Cl)ccc4n3)[nH]c2c1 | 5.09 | – |
| CCCCOc1ccc(CSCCN)cc1Cl | – | 27.8 µM (inactive) |
| CC(=O)Nc1sc2c(c1-c1nc3ccccc3s1)CCN(C(C)C)C2 | 5.20 | – |
| Cc1ccc(Sc2ccc(/C=C3/C(=O)NN(c4ccccc4)C3=O)o2)cc1 | 5.37 | – |
| CC(C)(C)NCc1cc(Br)ccc1OC1CCCC1 | 5.10 | – |
| Cc1nc(Cl)nc(N(C)c2ccccc2)c1[N+](=O)[O-] | 5.03 | – |
| O=C(CNC1CCCC1)Nc1ccc(N2CCCCCC2)cc1 | – | 10.7 µM (inactive) |
| CCc1ccccc1NC(=O)C1COc2ccccc2O1 (stereo not drawn) | – | 19.8 µM (inactive) |
| O=C(Cc1ccc(Cl)cc1)OCC(=O)c1ccc[nH]1 | 5.25 | – |
| O=C(N/N=C/c1cccc2cccnc12)[C@H]1C[C@@H]1c1ccccc1 | – | 13.1 µM (inactive) |
| Cc1cc(C=C2C(=O)NC(=S)NC2=O)c(C)n1C1CCCC1 | 5.41 | – |
| CC(C)[C@@H]1CC[C@@H](C)C[C@H]1OC(=O)C[n+]1cc(-c2ccc(Cl)cc2)n2c1CCCCC2 | 5.66 | – |
| O=S(=O)(Nc1nccs1)c1ccc(NCc2cc(Br)cc(Br)c2O)cc1 | – | 10.7 µM (inactive) |

| Compound | pIC50 | IC50 |
| --- | --- | --- |
| O=C(Nc1nnc(-c2ccc(Cl)cc2)o1)c1ccccc1Br | 6.24 | – |
| Fc1cccc2sc(N3CCCC3)nc12 | – | 23.1 µM (inactive) |
| O=C(Nc1ccccn1)c1ccc([N+](=O)[O-])o1 | 6.11 | – |
| CN(C)c1ccc(NC(=O)COC(=O)c2cc(Cl)ccc2[N+](=O)[O-])cc1 | 5.05 | – |
| O=C(OCC(=O)N1CCN(c2ccccc2)CC1)c1ccc(Cl)cc1[N+](=O)[O-] | – | 14.4 µM (inactive) |
| COC(=O)COc1ccc2c(=O)c(-c3ccccc3)coc2c1 | > 7.00 | – |
| Cc1cc(NC2CCCCC2)nc(NCc2ccccc2)n1 | 5.44 | – |
| O=[N+]([O-])c1ccc(Nc2ccccc2O)c2nonc12 | 5.23 | – |
| O=C(N/N=C/c1ccc[nH]1)c1cccnc1 | – | 26.7 µM (inactive) |
| Cc1ccc(S(=O)(=O)CCC(=O)Nc2nc(-c3ccncc3)cs2)cc1 | – | 14.6 µM (inactive) |
| CCNC(=O)COC(=O)c1ccc(-c2nc3ccccc3s2)s1 | 5.24 | – |
| Nc1nonc1C(=O)N/N=C/c1ccc([N+](=O)[O-])o1 | 5.25 | – |
| Cc1ccc(NC(=O)CC2SC3=NCCCN3C2=O)c(C)c1 (stereo not drawn) | – | 18.8 µM (inactive) |
| COC(=O)c1ccccc1Sc1ncnc2onc(C)c12 | 5.18 | – |
| COC(=O)COc1ccc(S(=O)(=O)N2CCCCCC2)cc1 | 5.38 | – |
| O=C(C#Cc1ccccc1)c1ccco1 | 6.37 | – |
| CCn1nnc(NC(=O)c2sc3ccccc3c2Cl)n1 | – | 28.5 µM (inactive) |
| CCN1/C(=C(\O)c2ccccc2)C(=O)c2ccccc2S1(=O)=O | – | 15.8 µM (inactive) |
| Cc1cc(N/N=C/c2ccccc2O)c2ccccc2n1 | – | 10.1 µM (inactive) |
| Oc1c(Br)cc(Br)cc1/C=N/c1nccs1 | – | 21.2 µM (inactive) |
| CC(C)(C)CC(=O)NC(=S)NCc1ccco1 | 5.34 | – |
| CCOC(=O)c1nc2sc3c(c2c(=O)[nH]1)CCC(C)C3 (stereo not drawn) | > 7.00 | – |
| CCCCc1ccc(NS(=O)(=O)c2c(C)n(C)c(=O)n(C)c2=O)cc1 | – | 27.1 µM (inactive) |

| Compound | pIC50 | IC50 |
| --- | --- | --- |
| Cc1[nH]n2c(=O)c3c(nc2c1-c1ccccc1)CCCC3 | – | 13.6 µM (inactive) |
| O=C(NCCCN1CCOCC1)c1c(O)c2cc(Br)cc(Br)c2[nH]c1=O | 6.10 | – |
| CCOC(=O)Cc1csc(NC(=O)c2c(O)c3ccccc3n(CCC(C)C)c2=O)n1 | 5.75 | – |
| CCCCNC(=O)Nc1nnc(-c2ccc(OCC)cc2)o1 | – | 21.9 µM (inactive) |
| O=C(N/N=C/C=C/c1cccc([N+](=O)[O-])c1)c1ccncc1 | – | 24.8 µM (inactive) |
| COC(=O)c1ccccc1NC(=O)C1CC(c2ccc(F)cc2)=NO1 (stereo not drawn) | – | 10.2 µM (inactive) |
| COc1cc(/C=N/Nc2ccc(Cl)c(C(=O)O)c2)ccc1OC(=O)c1ccco1 | – | 11.9 µM (inactive) |
| Cc1ccc(C)c(-c2csc(NC(=O)c3cnccn3)n2)c1 | 5.50 | – |
| Cc1ccc(-c2nnc(SCC#CCOC(=O)c3ccco3)o2)cc1 | 6.96 | – |
| CC(C)(C)NC(=O)c1ccc(NC(=O)c2ccccc2-c2ccccc2C(=O)O)cc1 | 5.43 | – |
| O=C(Cn1cc([N+](=O)[O-])nc1[N+](=O)[O-])N1CCN(c2ccccc2)CC1 | – | 12.8 µM (inactive) |
| Cc1ccc(OC(=O)c2ccc(Br)o2)cc1 | – | 13.6 µM (inactive) |
| Cc1ccc(C(=O)C=CNNC(=O)c2ccccc2)cc1 | 5.67 | – |
| COC(=O)COc1ccc(S(=O)(=O)N2CCN(c3ccccc3F)CC2)cc1 | – | 27.9 µM (inactive) |
| CCCc1cc(C(=O)Nc2ccccc2SC)no1 | – | 12.1 µM (inactive) |
| CCCOC(=O)c1cc(-c2ccc(C=O)o2)ccc1Cl | 5.31 | – |
| COc1ccccc1CCNC(=O)c1ccc(C)o1 | 5.53 | – |
| O=C(NCCC1=CCCCC1)c1coc(=O)c(Br)c1 | – | 23.7 µM (inactive) |
| O=C1OC(/C(=C\Nc2cc(Cl)ccc2O)[N+](=O)[O-])c2ccccc21 (stereo not drawn) | 5.10 | – |
| CCOC(=O)COc1ccc2c(c1)C(=O)CC(C)(c1cccnc1)O2 (stereo not drawn) | – | 10.2 µM (inactive) |
| Cc1ccccc1NC(=O)c1nc[nH]c1C(=O)NCc1ccccc1 | – | 23.7 µM (inactive) |
